Data published in ChEMBL document CHEMBL5528002, “Identification of selective 5-LOX and FLAP inhibitors as novel anti-inflammatory agents by ligand-based virtual screening” (Eur J Med Chem, 2024).
Calls of active or inactive are those of the source. The rule behind the calls is not given here.

Tests used:
[1] = target: T1, Polyunsaturated fatty acid 5-lipoxygenase (Homo sapiens) (UniProt P09917); assay: Inhibition of human recombinant 5-LOX expressed in Escherichia coli BL21(DE3) assessed as enzyme remaining activity at 10 uM using arachidonic acid as substrate preincubated with compound for 15 mins followed by substrate and CaCl2 addition measured after 10 mins by RP-HPLC analysis relative to control; details: time 25.0 min
T1 sequence (whole entry): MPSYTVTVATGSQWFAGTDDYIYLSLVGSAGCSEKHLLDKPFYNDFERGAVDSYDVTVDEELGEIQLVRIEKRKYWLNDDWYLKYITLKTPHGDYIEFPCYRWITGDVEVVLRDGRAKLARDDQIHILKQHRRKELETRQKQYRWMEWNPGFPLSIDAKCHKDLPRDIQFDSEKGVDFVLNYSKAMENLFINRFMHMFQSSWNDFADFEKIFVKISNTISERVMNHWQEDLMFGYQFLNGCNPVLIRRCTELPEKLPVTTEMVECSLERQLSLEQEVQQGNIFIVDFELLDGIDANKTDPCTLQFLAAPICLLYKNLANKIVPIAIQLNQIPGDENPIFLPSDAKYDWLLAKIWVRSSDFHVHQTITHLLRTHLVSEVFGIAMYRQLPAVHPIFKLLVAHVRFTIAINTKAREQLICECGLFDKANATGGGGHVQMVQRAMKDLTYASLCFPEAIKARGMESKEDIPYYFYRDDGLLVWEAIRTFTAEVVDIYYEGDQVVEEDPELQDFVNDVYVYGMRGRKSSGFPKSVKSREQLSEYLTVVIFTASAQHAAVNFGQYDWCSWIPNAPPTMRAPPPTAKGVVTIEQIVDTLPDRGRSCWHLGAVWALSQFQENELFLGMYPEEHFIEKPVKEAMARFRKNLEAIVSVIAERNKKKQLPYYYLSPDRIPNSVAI

[2] = target: T1, Polyunsaturated fatty acid 5-lipoxygenase (Homo sapiens); assay: Inhibition of 5-LOX in human Neutrophil assessed as enzyme remaining activity at 10 uM preincubated with compound for 15 mins followed by A23187 addition measured after 10 mins by RP-HPLC analysis relative to control; format: cell-based; details: time 25.0 min
[3] = target: T2, Polyunsaturated fatty acid 5-lipoxygenase (Homo sapiens, UniProt P09917); assay: Inhibition of 5-LOX in human Neutrophil using arachidonic acid as substrate preincubated with compound for 15 mins followed by substrate and A23187 addition measured after 10 mins by RP-HPLC analysis; format: cell-based
T2 sequence (P09917 whole entry): T1 sequence (whole entry)

[4] = test system: Neutrophil; assay: Inhibition of ROS production in PMA-induced human Neutrophil cells at 1 uM incubated for 10 mins by DCFH-DA dye based fluorometric assay; format: functional, cell-based
[5] = target: T3, Bifunctional epoxide hydrolase 2 (Homo sapiens) (UniProt P34913); assay: Inhibition of human sEH at 10 uM relative to control
T3 sequence (whole entry): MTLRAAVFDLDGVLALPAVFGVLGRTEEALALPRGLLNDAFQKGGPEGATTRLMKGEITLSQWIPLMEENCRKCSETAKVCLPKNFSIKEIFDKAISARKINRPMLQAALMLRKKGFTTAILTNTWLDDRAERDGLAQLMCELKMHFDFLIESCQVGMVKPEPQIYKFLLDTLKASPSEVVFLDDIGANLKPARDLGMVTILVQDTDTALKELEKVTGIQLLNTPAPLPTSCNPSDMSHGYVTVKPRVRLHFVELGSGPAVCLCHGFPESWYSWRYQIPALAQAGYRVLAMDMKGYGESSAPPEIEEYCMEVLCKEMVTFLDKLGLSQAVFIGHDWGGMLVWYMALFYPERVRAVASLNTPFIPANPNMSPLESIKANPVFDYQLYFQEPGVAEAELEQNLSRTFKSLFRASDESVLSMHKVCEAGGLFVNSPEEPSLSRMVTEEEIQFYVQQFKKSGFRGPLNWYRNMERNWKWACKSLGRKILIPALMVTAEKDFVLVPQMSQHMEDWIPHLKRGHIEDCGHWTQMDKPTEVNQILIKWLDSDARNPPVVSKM

[6] = Antioxidant activity assessed as DPPH radical scavenging activity at 1 uM incubated for 30 min by DPPH assay; format: functional
[7] = Antioxidant activity assessed as DPPH radical scavenging activity at 10 uM incubated for 30 min by DPPH assay; format: functional
[8] = target: T2, Polyunsaturated fatty acid 5-lipoxygenase; assay: Inhibition of human recombinant 5-LOX expressed in Escherichia coli BL21(DE3) using arachidonic acid as substrate preincubated with compound for 15 mins followed by substrate and CaCl2 addition measured after 10 mins by RP-HPLC analysis
[9] = target: T1, Polyunsaturated fatty acid 5-lipoxygenase (Homo sapiens); assay: Inhibition of 5-LOX in human Neutrophil at 10 uM preincubated with compound for 15 mins followed by A23187 addition measured after 10 mins by RP-HPLC analysis relative to control; format: cell-based; details: time 25.0 min
[10] = test system: Neutrophil; assay: Inhibition of ROS production in PMA-induced human Neutrophil cells at 10 uM incubated for 10 mins by DCFH-DA dye based fluorometric assay; format: functional, cell-based
[11] = target: T4, Prostaglandin E synthase (Homo sapiens) (UniProt O14684); assay: Inhibition of human mPGES-1 at 10 uM relative to control
T4 sequence (whole entry): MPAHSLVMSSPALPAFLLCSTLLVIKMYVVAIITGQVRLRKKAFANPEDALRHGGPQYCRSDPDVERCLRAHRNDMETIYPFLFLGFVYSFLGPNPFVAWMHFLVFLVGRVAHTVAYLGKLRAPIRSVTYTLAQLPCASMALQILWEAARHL

[12] = target: T4, Prostaglandin E synthase (Homo sapiens); assay: Inhibition of human mPGES-1 assessed as enzyme remaining activity at 10 uM relative to control
[13] = target: T3, Bifunctional epoxide hydrolase 2 (Homo sapiens); assay: Inhibition of human sEH assessed as enzyme remaining activity at 10 uM relative to control
[14] = target: T1, Polyunsaturated fatty acid 5-lipoxygenase (Homo sapiens); assay: Inhibition of 5-LOX in human Neutrophil at 10 uM using arachidonic acid as substrate preincubated with compound for 15 mins followed by substrate and A23187 addition measured after 10 mins by RP-HPLC analysis relative to control; format: cell-based; details: time 25.0 min
[15] = target: T1, Polyunsaturated fatty acid 5-lipoxygenase (Homo sapiens); assay: Inhibition of 5-LOX in human Neutrophil assessed as enzyme remaining activity at 10 uM using arachidonic acid as substrate preincubated with compound for 15 mins followed by substrate and A23187 addition measured after 10 mins by RP-HPLC analysis relative to control; format: cell-based; details: time 25.0 min
[16] = target: T1, Polyunsaturated fatty acid 5-lipoxygenase (Homo sapiens); assay: Inhibition of 5-LOX in human Neutrophil assessed as enzyme remaining activity at 30 nM preincubated with compound for 15 mins followed by A23187 addition measured after 10 mins by RP-HPLC analysis relative to control; format: cell-based; details: time 25.0 min
[17] = target: T1, Polyunsaturated fatty acid 5-lipoxygenase (Homo sapiens); assay: Inhibition of 5-LOX in human Neutrophil assessed as enzyme remaining activity at 30 nM using arachidonic acid as substrate preincubated with compound for 15 mins followed by substrate and A23187 addition measured after 10 mins by RP-HPLC analysis relative to control; format: cell-based; details: time 25.0 min

| SMILES | Activity [1] [%] | Activity [2] [%] | IC50 [3] [µM] | inhibition [4] | inhibition [5] [%] | Activity [6] | Activity [7] | IC50 [8] [µM] | inhibition [9] | inhibition [10] | inhibition [11] | Activity [12] [%] | Activity [13] [%] | inhibition [14] | Activity [15] [%] | Activity [16] [%] | Activity [17] [%] |
| --- | --- | --- | --- | --- | --- | --- | --- | --- | --- | --- | --- | --- | --- | --- | --- | --- | --- |
| COC(=O)c1ccc(NCc2cc(O)c3ccccc3c2O)cc1 | 6.1 | 3.3 | 1 | inactive | > 35 | inactive | Active | 1.1 | > 50% | Active | < 40% | 50.4 | 84.4 | > 50% | 1.9 | – | – |
| CC(C)c1ccc2c(c1)c(SC(C)(C)C)c(CC(C)(C)C(=O)O)n2Cc1ccc(Cl)cc1 | – | – | – | – | – | – | – | – | – | – | – | 45.8 | – | – | – | 1.5 | 7.8 |
| O=C1NC(=O)C(CCC(=O)c2ccc3ccccc3c2)C(=O)N1 | 86.1 | 63.3 | – | – | > 35 | – | – | – | 37% | – | inactive | 77.5 | 83.3 | inactive | 94.8 | – | – |
| O=C1Nc2ccccc2/C1=N\CCc1c[nH]c2ccccc12 | 69.1 | 73.5 | – | – | > 35 | – | – | – | inactive | – | > 50% | 30.4 | 92.8 | Active | 42.8 | – | – |
| Oc1nc(Cc2ccc3ccccc3n2)cc(-c2ccccc2)n1 | 68.1 | 53.9 | – | – | > 35 | – | – | – | 37% | – | inactive | 55.8 | 91.6 | inactive | 111 | – | – |
| O=C1C/C(=C/c2cccc(OCc3ccccc3)c2)C(=O)N1 | 94.4 | 112 | – | – | > 35 | – | – | – | inactive | – | inactive | 83.1 | 128 | – | 67.1 | – | – |
| CC(=O)NC(CCc1ccc(Cl)c(Cl)c1)c1cccc(O)c(=O)c1 (configuration not stated) | 5.3 | 34.5 | – | inactive | > 35 | inactive | inactive | – | > 50% | inactive | inactive | 102 | 66.2 | > 50% | 49.5 | – | – |
| N=C1OC(c2c[nH]c3ccc(OCc4ccccc4)cc23)C(O)=C1O (configuration not stated) | 95 | 56.1 | – | – | > 35 | – | – | – | 37% | – | < 40% | 56.8 | 86.7 | inactive | 92.3 | – | – |
| Nc1nc(N)c2cc([S+]([O-])c3ccc4ccccc4c3)ccc2n1 (configuration not stated) | 94.6 | 62 | – | – | > 35 | – | – | – | 37% | – | inactive | 88.3 | 93.9 | inactive | 82.1 | – | – |
| CC(=O)c1ccc(NCN2C(=O)c3ccccc3C2=O)cc1 | 97.2 | 72.8 | – | – | > 35 | – | – | – | inactive | – | > 50% | 47.6 | 102 | – | 91.8 | – | – |
